Assay [1] relates to Histone deacetylase (Homo sapiens). Description: Inhibition of HDAC at 200 uM relative to control.
A further assay relates to BXPC-3. In words: Cytotoxicity against human BxPC3 cells at 5 uM. The class given is functional. The following applies: read-out: GI.

Each structure is given as a SMILES string.

As a reminder, the inhibition is how much of the control response was suppressed. High values mean strong suppression, low ones little suppression.

As to `CC[C@@H]1NC(=O)[C@H](CCCCNC(C)=O)NC(=O)[C@H]2CCCN2C(=O)[C@H](Cc2ccccc2)N(C)C1=O`, the inhibition in assay [1] came out at 86%. For the same molecule, the inhibition of growth at 5 µM in the assay with BXPC-3 came out at 19%. In turn, `CC[C@@H]1NC(=O)[C@H](CCCNC(=N)N)NC(=O)[C@H]2CCCCN2C(=O)[C@@H](Cc2ccccc2)NC1=O` yielded an inhibition in assay [1] of 98%. Besides, the inhibition of growth at 5 µM with BXPC-3 was 20%. For `CCC(=O)CCCCC[C@@H]1NC(=O)[C@H]2CCCCN2C(=O)[C@H]([C@@H](C)CC)NC(=O)[C@H](Cc2cn(OC)c3ccccc23)NC1=O` [APICIDIN], in the assay with BXPC-3, the inhibition of growth at 5 µM came to 98%. In assay [1], `CC[C@@H]1NC(=O)[C@H](CCCNC(=N)N)NC(=O)[C@H]2CCCN2C(=O)[C@@H]2Cc3ccccc3CN2C1=O` displayed an inhibition of 83%. The inhibition of growth at 5 µM with BXPC-3 turned out to be 0%. As to `CC[C@@H]1NC(=O)[C@H](CCCNC(=N)N)NC(=O)[C@H]2CCCN2C(=O)[C@H](Cc2ccccc2)NC1=O`, the inhibition in assay [1] came to 97%. In addition, in the assay with BXPC-3, the inhibition of growth at 5 µM turned out to be 27%. `CC[C@@H]1NC(=O)[C@H](CCCCNC(C)=O)NC(=O)[C@H]2CCCN2C(=O)[C@H](Cc2ccccc2)NC1=O` registered an inhibition in assay [1] of 38%. Moreover, in the assay on BXPC-3, the inhibition of growth at 5 µM was found to be 38%. `CC[C@@H]1NC(=O)[C@H](CCCNC(=N)N)NC(=O)[C@H]2CCCN2C(=O)[C@@H](Cc2ccccc2)NC1=O` showed an inhibition in assay [1] of 97%. In the assay with BXPC-3, the inhibition of growth at 5 µM amounted to 17%.

Source of the values: ChEMBL document CHEMBL1144809, “Synthesis and biological evaluation of histone deacetylase inhibitors that are based on FR235222: a cyclic tetrapeptide scaffold” (Bioorg Med Chem Lett, 2008).
